The text below walks through data of patent US10287269B2, “Pyrazolyl pyrimidinone compounds as PDE2 inhibitors” (Merck Sharp & Dohme Corp., priority 2015, dated 2019).

The target of data set [1] is T1, human PDE2A1 (Homo sapiens, UniProt O00408).
T1 construct: GST; purchased BPS Bioscience (San Diego, Calif.) 60020; host or cells: insect cells
The experiment in a line: PDE2 IMAP FP inhibition assay, human enzyme (PDE selectivity panel format). Format: biochemical. Particulars: Lab A; read-out: Human PDE2 Ki (nM) Lab A. How it is done: Selectivity for PDE2, as compared to other PDE families, was assessed using the IMAP® technology. Human PDE10A2 enzyme was prepared from cytosolic fractions of transiently transfected HEK cells. All other PDE's were GST Tag human enzyme expressed in insect cells and were obtained from BPS Bioscience (San Diego, Calif.): PDE1A (Cat#60010), human PDE2A1 (Cat#60020), PDE3A (Cat#60030), PDE4A1A (Cat#60040), PDE5A1 (Cat#60050), PDE6C (Cat#60060), PDE7A (Cat#60070), PDE8A1 (Cat#60080), PDE9A2 (Cat#60090), PDE11A4 (Cat#60110).
Assays for PDE 1 through 11 were performed in parallel at room temperature in 384-well microtiter plates with an incubation volume of 20.2 μL. Solutions of test compounds were prepared in DMSO and serially diluted with DMSO to yield 30 μL of each of ten solutions differing by 3-fold in concentration, at 32 serial dilutions per plate. […] A Labcyte POD 810 (Labcyte, Sunnyvale, Calif.) was used to dispense 200 nL from each well of the titration plate to make eleven copies of the assay plate for each titration, one copy for each PDE enzyme. A solution of each enzyme (dilution from aliquots, sufficient to produce 20% substrate conversion) and a separate solution of FAM-labeled cAMP or FAM-labeled cGMP from Molecular Devices (Sunnyvale, Calif., product # R7506 or cGMP#R7508), at a final concentration of 50 nM were made in the assay buffer (10 mM Tris HCl, pH 7.2, 10 mM MgCl2, 0.05% NaN3 0.01% Tween-20, and 1 mM DTT). Note that the substrate for PDE2 is 50 nM FAM cAMP containing 1000 nM of cGMP. The enzyme and the substrate were then added to the assay plates in two consecutive additions of 10 μL and then shaken to mix. The reaction was allowed to proceed at room temperature for 60 minutes. A binding solution was then made from the kit components, comprised of 80% Solution A, 20% Solution B and binding reagent at a volume of 1/600 the total binding solution. The enzymatic reaction was stopped by addition of 60 μL of the binding solution to each well of the assay plate. The plates were sealed and shaken for 10 seconds. The plates were incubated at room temperature for one hour, then the parallel and perpendicular fluorescence was measured using a Tecan Genios Pro plate reader (Tecan, Switzerland). The apparent inhibition constants for the compounds against all 11 PDE's was determined from the parallel and perpendicular fluorescent readings as described for PDE10 FP assay using the following apparent KM values for each enzyme and substrate combination: PDE1A (FAM cGMP) 70 nM, human PDE2A1 (FAM cAMP) 10,000 nM, PDE3A (FAM cAMP) 50 nM, PDE4A1A (FAM cAMP) 1500 nM, PDE5A1 (FAM cGMP) 400 nM, PDE6C (FAM cGMP) 700 nM, PDE7A (FAM cAMP) 150 nM, PDE8A1 (FAM cAMP) 50 nM, PDE9A2 (FAM cGMP) 60 nM, PDE10A2 (FAM cAMP) 150 nM, PDE11A4 (FAM cAMP) 1000 nM. The intrinsic PDE2 inhibitory activity of a compound which may be used in accordance with the present invention may be determined by these assays. […]

In data set [2] the test system is other PDE isoforms. Conditions: reported in Brandon et al. 2007; cited from earlier work.
The conditions of data set [3]: reported in Brandon et al. 2007; cited from earlier work.

Each structure is given as a SMILES string.

T1 sequence (O00408 1-920 isoform O00408-2): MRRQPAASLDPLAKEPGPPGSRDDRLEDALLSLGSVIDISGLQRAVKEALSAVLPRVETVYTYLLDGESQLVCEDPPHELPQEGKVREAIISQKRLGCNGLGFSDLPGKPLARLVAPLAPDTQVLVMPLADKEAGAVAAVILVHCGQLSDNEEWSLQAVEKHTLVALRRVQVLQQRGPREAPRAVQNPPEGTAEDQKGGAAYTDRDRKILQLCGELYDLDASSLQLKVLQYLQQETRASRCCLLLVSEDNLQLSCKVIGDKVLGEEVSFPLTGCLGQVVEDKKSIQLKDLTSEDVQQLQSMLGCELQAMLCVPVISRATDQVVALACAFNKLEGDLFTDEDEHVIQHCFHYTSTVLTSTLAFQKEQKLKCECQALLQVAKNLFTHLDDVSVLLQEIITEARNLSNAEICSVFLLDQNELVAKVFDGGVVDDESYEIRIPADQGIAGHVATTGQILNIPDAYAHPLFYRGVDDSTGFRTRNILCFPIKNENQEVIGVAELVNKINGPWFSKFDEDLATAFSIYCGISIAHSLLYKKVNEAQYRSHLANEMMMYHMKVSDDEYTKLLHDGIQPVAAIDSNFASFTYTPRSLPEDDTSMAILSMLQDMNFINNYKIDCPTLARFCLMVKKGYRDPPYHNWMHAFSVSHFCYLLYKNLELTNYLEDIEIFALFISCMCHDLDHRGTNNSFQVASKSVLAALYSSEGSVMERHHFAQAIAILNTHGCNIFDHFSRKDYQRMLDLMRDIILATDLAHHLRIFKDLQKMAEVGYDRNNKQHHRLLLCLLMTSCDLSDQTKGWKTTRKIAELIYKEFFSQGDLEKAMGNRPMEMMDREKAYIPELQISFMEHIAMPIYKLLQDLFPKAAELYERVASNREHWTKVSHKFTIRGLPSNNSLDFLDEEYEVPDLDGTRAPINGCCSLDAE

Regarding `COC(=O)C(c1ccc(C(F)(F)F)cc1F)n1cc(-c2cc(=O)[nH]c(C)n2)cn1` (stereo not shown) [Example 113, methyl 2-(2-fluoro-4-(trifluoromethyl)phenyl)-2-(4-(2-methyl-6-oxo-1,6-dihydropyrimidin-4-yl)-1H-pyrazol-1-yl)acetate], the inhibition constant (Ki) in data set [1] turned out to be 1970 nM.
For the compound `COc1ccc(Cc2nn3c([C@@H](CCCc4ccccc4)[C@@H](C)O)nc(C)c3c(=O)[nH]2)cc1OC` [Bay 60-7550], the “potency at other PDE isoforms” value in data set [2] is recorded as “significant potency”. The brain penetration result in data set [3] is listed as “limited brain penetration”.
In the case of `Cc1nc(-c2cnn(C(CO)c3ccc(C(F)(F)F)cc3F)c2)cc(=O)[nH]1` (single isomer, unassigned) [Example 110, (S)- or (R)-6-(1-(1-(2-fluoro-4-(trifluoromethyl)phenyl)-2-hydroxyethyl)-1H-pyrazol-4-yl)-2-methylpyrimidin-4(3H)-one], the inhibition constant (Ki) in data set [1] was determined as 299 nM.
For the compound `CCCc1ccc([C@](C)(O)c2cnn(-c3cc(=O)[nH]c(C)n3)c2)c(F)c1` (single isomer, unassigned) [Example 13], the inhibition constant (Ki) in data set [1] was 287 nM.
`CCc1ccc(C(C(=O)OC)n2cc(-c3cc(=O)[nH]c(C)n3)cn2)c(Cl)c1` (stereo not shown) [Example 114, methyl 2-(2-chloro-4-ethylphenyl)-2-(4-(2-methyl-6-oxo-1,6-dihydropyrimidin-4-yl)-1H-pyrazol-1-yl)acetate]: the Ki in data set [1] is 1820 nM.
For the compound `Cc1nc(-n2cc(C(C)(O)c3ccc(C(F)(F)F)cc3Cl)cn2)cc(=O)[nH]1` (single isomer, unassigned) [Example 117, (R)- or (S)-6-(4-(1-(2-chloro-4-(trifluoromethyl)phenyl)-1-hydroxyethyl)-1H-pyrazol-1-yl)-2-methylpyrimidin-4(3H)-one], the inhibitory constant (Ki) in data set [1] was found to be 4.4 nM.

As a reminder, the Ki is the dissociation constant of the complex between target and ligand, obtained from inhibition or displacement.
